Target: T1, PSMA-expressing LNCaP cells (Homo sapiens, UniProt Q04609)
T1 construct: PSMA-expressing LNCaP cells; endogenous in cells; host or cells: LNCaP
Experiment: Binding competition assay against 3H-PSMA-617 on LNCaP cells
Conditions: for remaining activity at 0.01 µM / remaining activity at 0.1 µM: LNCaP cells, 10 nM 3H-PSMA-617, 2 h at 37° C., triplicates; for remaining activity at 0.01 µM: competing non-radiolabeled compound 10 nM; for remaining activity at 0.1 µM: competing non-radiolabeled compound 100 nM; for competition against 3H-PSMA-617 on PSMA-expressing LNCaP cells (in words): comparison between examples
Protocol: Cells were incubated at 37° C. and 5% CO2 over night. […] After addition of the compounds in growth media the cells were swiveled slightly on a shaker mixing for 10 min followed by incubation for 2 h at 37° C., 5% C02. Following the incubation time the supernatant was removed by pipetting and cells were washed twice with ice cold PBS (total of 800 μl). Cells were lysed in 500 μl of 0.3M NaOH (PanReac AppliChem ITW Reagents) by vigorous shaking for 15 min and the cell lysated pipetted into scintillator tubes (S207-[…]® Scintillation Vials 6.5 ml #S207, Simport). In the following the wells were washed with 500 μl PBS and the washing PBS added to the corresponding samples in the sincitallator tubes. To each sample in the scintillator tubes 4 mL of Ultima Gold liquid scintillation cocktail (Sigma-Aldrich #L8286) was added and the samples let stand for at least 30 min. Thereafter radioactivity was counted in a Tri-Carb Liquid Scinzillation Analyzer (Perkin Elmer).

T1 sequence (Q04609 whole entry): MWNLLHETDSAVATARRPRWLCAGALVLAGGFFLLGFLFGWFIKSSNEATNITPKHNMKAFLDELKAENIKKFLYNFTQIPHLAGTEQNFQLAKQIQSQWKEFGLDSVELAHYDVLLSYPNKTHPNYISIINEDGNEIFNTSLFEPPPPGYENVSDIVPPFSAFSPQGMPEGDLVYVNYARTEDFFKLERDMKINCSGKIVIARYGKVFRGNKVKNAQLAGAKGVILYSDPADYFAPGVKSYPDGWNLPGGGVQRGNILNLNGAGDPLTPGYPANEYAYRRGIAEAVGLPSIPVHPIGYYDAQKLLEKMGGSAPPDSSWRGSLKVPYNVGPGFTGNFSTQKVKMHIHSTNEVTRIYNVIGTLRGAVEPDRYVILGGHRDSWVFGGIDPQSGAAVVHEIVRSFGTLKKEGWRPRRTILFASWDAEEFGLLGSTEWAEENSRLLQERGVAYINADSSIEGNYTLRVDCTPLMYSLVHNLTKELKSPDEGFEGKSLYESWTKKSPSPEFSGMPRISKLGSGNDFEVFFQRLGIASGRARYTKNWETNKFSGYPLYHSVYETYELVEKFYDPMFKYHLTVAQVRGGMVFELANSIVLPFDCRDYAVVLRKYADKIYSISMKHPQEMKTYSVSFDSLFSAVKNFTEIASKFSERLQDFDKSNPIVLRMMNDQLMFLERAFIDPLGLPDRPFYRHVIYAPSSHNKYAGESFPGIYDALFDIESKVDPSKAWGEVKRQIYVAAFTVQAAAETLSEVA

Row | SMILES | remaining activity at 0.01 µM [%] | remaining activity at 0.1 µM [%] | competition against 3H-PSMA-617 on PSMA-expressing LNCaP cells (in words)
1 | NC[C@H]1CC[C@H](C(=O)N[C@@H](Cc2ccc(F)cc2)C(=O)NCCCC[C@H](NC(=O)N[C@@H](CCC(=O)O)C(=O)O)C(=O)O)CC1 [Example 7-A, N^6—{N-[(1r,4S)-4-(aminomethyl)cyclohexane-1-carbonyl]-4-fluoro-L-phenylalanyl}-N^2-{[(1S)-1,3-dicarboxypropyl]carbamoyl}-L-lysine] | 106 | 93 | 
2 | O=C(O)CC[C@H](NC(=O)N[C@@H](CCCCNC(=O)[C@@H](Cc1ccc2c(c1)CCCO2)NC(=O)[C@H]1CC[C@H](CNC(=O)CN2CCN(CC(=O)O)CCN(CC(=O)O)CCN(CC(=O)O)CC2)CC1)C(=O)O)C(=O)O [Example 38-B, N^6-{3-(3,4-dihydro-2H-1-benzopyran-6-yl)-N-[(1r,4S)-4-({2-[4,7,10-tris(carboxymethyl)-1,4,7,10-tetraazacyclododecan-1-yl]acetamido}methyl)cyclohexane-1-carbonyl]-D-alanyl}-N^2-{[(1S)-1,3-dicarboxypropyl]carbamoyl}-L-lysine] | 76 | 34 | 
3 | NC[C@H]1CC[C@H](C(=O)N[C@@H](Cc2cc(F)c(F)c(F)c2)C(=O)NCCCC[C@H](NC(=O)N[C@@H](CCC(=O)O)C(=O)O)C(=O)O)CC1 [Example 6-A, N^6—{N-[(1r,4S)-4-(aminomethyl)cyclohexane-1-carbonyl]-3,4,5-trifluoro-L-phenylalanyl}-N^2-{[(1S)-1,3-dicarboxypropyl]carbamoyl}-L-lysine] | 98 | 86 | 
4 | NCc1cccc(C(=O)N[C@@H](Cc2ccc3ccccc3c2)C(=O)NCCCC[C@H](NC(=O)N[C@@H](CCC(=O)O)C(=O)O)C(=O)O)c1 [Example 27-A, (3S,10S,14S)-1-[3-(aminomethyl)phenyl]-3-[(naphthalen-2-yl)methyl]-1,4,12-trioxo-2,5,11,13-tetraazahexadecane-10,14,16-tricarboxylic acid] | 27 | 7 | 
5 | O=C(O)CC[C@H](NC(=O)N[C@@H](CCCCNC(=O)[C@H](Cc1ccc2ccccc2n1)NC(=O)[C@H]1CC[C@H](CNC(=O)CN2CCN(CC(=O)O)CCN(CC(=O)O)CCN(CC(=O)O)CC2)CC1)C(=O)O)C(=O)O [Example 17-B, N^6-{3-(quinolin-2-yl)-N-[(1r,4S)-4-({2-[4,7,10-tris(carboxymethyl)-1,4,7,10-tetraazacyclododecan-1-yl]acetamido}methyl)cyclohexane-1-carbonyl]-L-alanyl}-N^2-{[(1S)-1,3-dicarboxypropyl]carbamoyl}-L-lysine] | 55 | 12 | best competition amongst all quinoline isomer examples
6 | O=C(O)CC[C@H](NC(=O)N[C@@H](CCCCNC(=O)[C@H](Cc1ccc2ccccc2n1)NC(=O)c1ccc(CNC(=O)CN2CCN(CC(=O)O)CCN(CC(=O)O)CCN(CC(=O)O)CC2)cn1)C(=O)O)C(=O)O [Example 34-B, N^6-{3-(quinolin-2-yl)-N-[5-({2-[4,7,10-tris(carboxymethyl)-1,4,7,10-tetraazacyclododecan-1-yl]acetamido}methyl)pyridine-2-carbonyl]-L-alanyl}-N^2-{[(1S)-1,3-dicarboxypropyl]carbamoyl}-L-lysine] | 43 | 6 | improved competition
7 | NC[C@H]1CC[C@H](C(=O)N[C@@H](Cc2cccc(S(F)(F)(F)(F)F)c2)C(=O)NCCCC[C@H](NC(=O)N[C@@H](CCC(=O)O)C(=O)O)C(=O)O)CC1 [Example 16-A, N^6—{N-[(1r,4S)-4-(aminomethyl)cyclohexane-1-carbonyl]-3-(pentafluoro-lambda^6-sulfanyl)-L-phenylalanyl}-N^2-{[(1S)-1,3-dicarboxypropyl]carbamoyl}-L-lysine] | 79 | 90 | 
8 | NC[C@H]1CC[C@H](C(=O)N[C@@H](Cc2ccc(Br)cn2)C(=O)NCCCC[C@H](NC(=O)N[C@@H](CCC(=O)O)C(=O)O)C(=O)O)CC1 [Example 31-A, N^6—{N-[(1r,4S)-4-(aminomethyl)cyclohexane-1-carbonyl]-3-(5-bromopyridin-2-yl)-L-alanyl}-N^2-{[(1S)-1,3-dicarboxypropyl]carbamoyl}-L-lysine] | 61 | 78 | 
9 | NC[C@H]1CC[C@H](C(=O)N[C@H](Cc2ccc3ccncc3c2)C(=O)NCCCC[C@H](NC(=O)N[C@@H](CCC(=O)O)C(=O)O)C(=O)O)CC1 [Example 42-A, (3R,10S,14S)-1-[(1r,4S)-4-(aminomethyl)cyclohexyl]-3-[(isoquinolin-7-yl)methyl]-1,4,12-trioxo-2,5,11,13-tetraazahexadecane-10,14,16-tricarboxylic acid] | 86 | 78 | 
10 | NCc1ccc(C(=O)N[C@@H](Cc2ccc3ccccc3c2)C(=O)NCCCC[C@H](NC(=O)N[C@@H](CCC(=O)O)C(=O)O)C(=O)O)cc1 [Example 24-A, (3S,10S,14S)-1-[4-(aminomethyl)phenyl]-3-[(naphthalen-2-yl)methyl]-1,4,12-trioxo-2,5,11,13-tetraazahexadecane-10,14,16-tricarboxylic acid] | 66 | 16 | 
11 | O=C(O)CC[C@@H](NC(=O)N[C@@H](CCCCNC(=O)[C@H](Cc1ccc2ccccc2c1)NC(=O)[C@H]1CC[C@H](CNC(=O)CN2CCN(CC(=O)O)CCN(CC(=O)O)CCN(CC(=O)O)CC2)CC1)C(=O)O)C(=O)O [Example 1-B-D, (3S,10S,14R)-3-[(naphthalen-2-yl)methyl]-1,4,12-trioxo-1-[(1r,4S)-4-({2-[4,7,10-tris(carboxymethyl)-1,4,7,10-tetraazacyclododecan-1-yl]acetamido}methyl)cyclohexyl]-2,5,11,13-tetraazahexadecane-10,14,16-tricarboxylic acid] | 80 | 78 | 
12 | COc1c(C[C@@H](NC(=O)[C@H]2CC[C@H](CN)CC2)C(=O)NCCCC[C@H](NC(=O)N[C@@H](CCC(=O)O)C(=O)O)C(=O)O)ccc2ccccc12 [Example 33-A, (3R,10S,14S)-1-[(1r,4S)-4-(aminomethyl)cyclohexyl]-3-[(1-methoxynaphthalen-2-yl)methyl]-1,4,12-trioxo-2,5,11,13-tetraazahexadecane-10,14,16-tricarboxylic acid] | 66 | 72 | 
13 | O=C(O)CC[C@H](NC(=O)N[C@@H](CCCCNC(=O)[C@@H](Cc1ccc2ccncc2c1)NC(=O)[C@H]1CC[C@H](CNC(=O)CN2CCN(CC(=O)O)CCN(CC(=O)O)CCN(CC(=O)O)CC2)CC1)C(=O)O)C(=O)O [Example 42-B, (3R,10S,14S)-3-[(isoquinolin-7-yl)methyl]-1,4,12-trioxo-1-[(1r,4S)-4-({2-[4,7,10-tris(carboxymethyl)-1,4,7,10-tetraazacyclododecan-1-yl]acetamido}methyl)cyclohexyl]-2,5,11,13-tetraazahexadecane-10,14,16-tricarboxylic acid] | 88 | 34 | 
14 | Cn1ccc(C(=O)NCCN(CCNC(=O)c2ccn(C)c(=O)c2O)CC(Cc2ccc(NC(=O)CCC(=O)N[C@H](CCCNC(=N)N)C(=O)N[C@H](CCCNC(=N)N)C(=O)NC[C@H]3CC[C@H](C(=O)N[C@@H](Cc4ccc5ccccc5c4)C(=O)NCCCCC(NC(=O)N[C@@H](CCC(=O)O)C(=O)O)C(=O)O)CC3)cc2)CN(CCNC(=O)c2ccn(C)c(=O)c2O)CCNC(=O)c2ccn(C)c(=O)c2O)c(O)c1=O (stereo partly drawn) [Example 46-E] | 78 | 66 | 
15 | O=C(O)CC[C@H](NC(=O)N[C@@H](CCCCNC(=O)[C@H](Cc1cc2ccccc2cn1)NC(=O)[C@H]1CC[C@H](CNC(=O)CN2CCN(CC(=O)O)CCN(CC(=O)O)CCN(CC(=O)O)CC2)CC1)C(=O)O)C(=O)O [Example 36-B, N^6-{3-(isoquinolin-3-yl)-N-[(1r,4S)-4-({2-[4,7,10-tris(carboxymethyl)-1,4,7,10-tetraazacyclododecan-1-yl]acetamido}methyl)cyclohexane-1-carbonyl]-L-alanyl}-N^2-{[(1S)-1,3-dicarboxypropyl]carbamoyl}-L-lysine] | 92 | 29 | 
16 | O=C(O)CC[C@H](NC(=O)N[C@@H](CCCCNC(=O)[C@H](Cc1ccc2ccccc2c1)NC(=O)c1cccc(CNC(=O)CN2CCN(CC(=O)O)CCN(CC(=O)O)CCN(CC(=O)O)CC2)c1)C(=O)O)C(=O)O [Example 27-B, (3S,10S,14S)-3-[(naphthalen-2-yl)methyl]-1,4,12-trioxo-1-[3-({2-[4,7,10-tris(carboxymethyl)-1,4,7,10-tetraazacyclododecan-1-yl]acetamido}methyl)phenyl]-2,5,11,13-tetraazahexadecane-10,14,16-tricarboxylic acid] | 54 | 6 | 
17 | NC[C@H]1CC[C@H](C(=O)N[C@H](Cc2ccc3cnccc3c2)C(=O)NCCCC[C@H](NC(=O)N[C@@H](CCC(=O)O)C(=O)O)C(=O)O)CC1 [Example 44-A, (3R,10S,14S)-1-[(1r,4S)-4-(aminomethyl)cyclohexyl]-3-[(isoquinolin-6-yl)methyl]-1,4,12-trioxo-2,5,11,13-tetraazahexadecane-10,14,16-tricarboxylic acid] | 85 | 68 | 

From US20230072421A1, “TARGETED RADIOPHARMACEUTICALS FOR THE DIAGNOSIS AND TREATMENT OF PROSTATE CANCER” (Bayer AS, priority 2019, published 2023)
